One series concerns the target T1, DNA gyrase (Escherichia coli, UniProt P0AES6).
T1 construct: supercoiling of relaxed pUC18 plasmid
Put plainly: Inhibition of DNA gyrase activity (DNA gyrase supercoiling assay). In kind it is biochemical, E. coli H560. The following applies: relaxed PUC18 substrate. As to the method:
The inhibition of DNA gyrase activity was measured using a DNA gyrase supercoiling assay according to R. Otter & N. Cozzarelli:Methods in Enzymology, Vol. 100, pp 171-180 (1983). DNA gyrase was isolated from E. coli H560, and relaxed PUC18 plasmed was used as substrate. The activities as regards inhibition of DNA gyrase activity, expressed as maximum non-effective concentration of the test compound (MNC in μg/ml) are compiled in the following Table 4: […]

A short description of series [1]: Physicochemical properties of compound Ia.
The subject of the next series is S. filipinensis IFO12860. The experiment in a line: Streptomycin sensitivity of S. filipinensis IFO12860. The conditions noted are these: Streptomyces filipinensis, IFO12860, read-out: Streptomycin sensitivity (M.I.C.). In kind it is cell-based. As to the method: (§1) The taxonomic studies were done according to the procedure adopted by the International Streptomyces Project (ISP) using the media recommended by Shining, E. B. and D. Gottlieb (Method for characterization of Streptomyces species; Intern. J. Syst. Bact. 16:313-340, 1966) and by Waksman, S. A. (Classification, identification and description of genera and species; in The Actinomycetes Vol. II; The Williams and Wilkins Co., Baltimore, 1961). All cultures were incubated at 27° C. for 15 days. The colour scheme in the Colour Harmony Manual (4th ed., 1958; Container Corporation of America, Chicago) was used to describe the pigmentation of the colonies. Sodium chloride tolerance of the strains and their growth at various temperatures were tested on ISP medium No. 3 (Difco) containing 0.15% yeast extract; and streptomycin sensitivity of the strains were tested on ISP medium No. Z (Difco).

The subject of a further series is strain NR0484. Put plainly: Streptomycin sensitivity of strain NR0484. In kind it is cell-based, Streptomyces sp. NR0484 (Streptomyces filipinensis). The conditions noted are these: Streptomyces, ISP medium No. Z (Difco), read-out: Streptomycin sensitivity (M.I.C.). The method, then: as §1

The structures appear in SMILES notation. ≈ marks a conversion by molar mass, not a printed value.

Regarding `Cc1c(O)cc(O)c2c1C(=O)OC[C@H](NC(=O)[C@@H]1[C@H](O)CCN1C(=O)[C@@H](N)CO)C(=O)N[C@H](C(=O)N[C@@H](C)C(=O)O)CSC2` [Example 12, N-[[(4R,7S)-1,3,4,5,6,7 8,10-octahydro-12,14-dihydroxy-7-[[(3R)-3-hydroxy-1-L-seryl-L-prolyl]amino]-11-methyl-6,10-dioxo-9,2,5-benzoxathiaazacyclododecin-4-yl]carbonyl]-L-alanine], the “maximum non-effective concentration of the test compound (MNC)” value at DNA gyrase was 5 µg/mL. Besides, in series [1], the “solubility (in words)” value is “water soluble”.

For `[H]/N=C(/N)N[C@H]1[C@H](O)[C@@H](O)[C@H](O[C@@H]2O[C@@H](C)[C@](O)(C=O)[C@H]2O[C@@H]2O[C@@H](CO)[C@H](O)[C@@H](O)[C@@H]2NC)[C@@H](N/C(N)=N\[H])[C@@H]1O` [Streptomycin], the MIC in the series with S. filipinensis IFO12860 and in the series on strain NR0484 was 6300 µg/mL (≈ 10.8 mM) in each case.

For the origin of these results see patent US5294609A, “DNA gyrase inhibitors and pharmaceutical preparations therefor” (Hoffmann-LaRoche Inc., priority 1991, dated 1994).
